Source: patent US8759051B2, “Control of contaminant microorganisms in fermentation processes with peroxygen-releasing compounds” (E I du Pont de Nemours and Company, priority 2010, dated 2014)
Values joined by “and” are separate entries in the source; they are usually repeats but may differ in a detail not shown here. Equal entries are not always repeated. Where two headings read alike, the source gives them in different places.

Legend:
[1] = tested on: lactic acid bacteria (LAB); assay: Inactivation of LAB in molasses at pH 4.2 and 5.4 (Examples 2 and 3); assay type: cell-based
Method: Molasses (B&G Foods, Inc., Roseland, N.J.) was diluted 1 to 3.1 with water and sterilized as in Example 1. The prepared molasses was then divided into two lots and pH-adjusted using sulfuric acid to approximately pH 4.2 and 5.4, respectively. Cultures of LAB were prepared as in Example 1 and inoculated into the molasses to give approximately 1×10^6 CFU/ml. Sodium percarbonate (Alfa Aesar, Ward Hill, Mass.) was added to give 250, 500, and 750 ppm. […] Levels of LAB were enumerated by dilution and plating onto the surface of MRS agar followed by incubation at 32° C. LAB were enumerated at approximately 2 and 24 hours after the addition of sodium percarbonate.
Molasses was prepared as above and adjusted to pH 4.2 and 5.4 using sulfuric acid. Cultures of lactic acid bacteria were prepared as indicated in Example 1 and inoculated into the molasses to give approximately 10E6 CFU/ml. Levels of bacteria were confirmed by plating serial dilutions of the inoculated molasses onto the surface of MRS agar plates as in Example 1. Calcium peroxide was added at the levels indicated. Bacterial levels were enumerated at 2 and 24 hours following addition as described above.

[2] = Stability of peroxygen-releasing compounds during storage at 40° C., iodometric titration of hydrogen peroxide (Example 4); assay type: physicochemical
Method: A dry oven was used to store samples of the peroxygen-releasing compounds at 40° C. The oven was allowed to equilibrate overnight. Two-gram duplicate samples of each of the following peroxygen-releasing compounds were dispensed into aluminum weighing dishes: sodium percarbonate (Alfa Aesar, Ward Hill, Mass.), sodium percarbonate FB 400 (Solvay Chemicals, Inc., Houston, Tex.), sodium percarbonate FB […] (Solvay Chemicals, Inc.), calcium peroxide (Sigma-Aldrich Co., St. […] After six days, samples were analyzed for levels of hydrogen peroxide using standard iodometric titration.

[3] = tested on: lactic acid bacteria (LAB); assay: Inactivation of LAB in dilute molasses at pH 5.0 in the presence of yeast Ethanol Red (Example 5); assay type: cell-based
Method: Cultures of lactic acid bacteria (LAB) were prepared as in Example 1 above. Molasses was diluted 1:3.1 with water as in previous examples. The fermenting yeast Ethanol Red was cultured as in example 1. Populations of lactic acid bacteria and yeasts were determined by dilution plating on MRS agar and YPD agar, respectively. Overnight cultures of LAB were mixed to prepare a bacterial cocktail and inoculated into molasses (diluted 1:3.1 with water) adjusted to pH 5.0 to give approximately 6.11 Log CFU/ml. Cultures of yeasts were added to each tube at a concentration of approximately 6.80 Log CFU/ml. […] The amount of UHP added was 1450 ppm. The amount of percarbonate added was 1812 ppm. Tubes were then incubated at 32° C. with agitation. […] Amphotericin inhibits the growth of yeast, facilitating enumeration of bacteria only.

[4] = before storage, duplicate samples
[5] = storage at 40° C. in dry oven, day 6, duplicate samples
[6] = storage at 40° C. in dry oven, day 14, duplicate samples

Structure (SMILES): [Ca+2].[O-][O-] [Calcium peroxide, calcium peroxide]
- CFU/ml LAB at hour indicated ([1]; molasses at pH 4.2, 197 ppm (69 ppm as H2O2), hour 2): 2.33 × 10^6 CFU/ml
- CFU/ml LAB at hour indicated ([1]; molasses at pH 4.2, 197 ppm (69 ppm as H2O2), hour 24): 4.25 × 10^6 CFU/ml
- CFU/ml LAB at hour indicated ([1]; molasses at pH 4.2, 393 ppm (138 ppm as H2O2), hour 2): 1.22 × 10^6 CFU/ml
- CFU/ml LAB at hour indicated ([1]; molasses at pH 4.2, 393 ppm (138 ppm as H2O2), hour 24): 1.00 × 10^1 CFU/ml
- CFU/ml LAB at hour indicated ([1]; molasses at pH 4.2, 590 ppm (207 ppm as H2O2), hour 2): 4.70 × 10^5 CFU/ml
- CFU/ml LAB at hour indicated ([1]; molasses at pH 4.2, 590 ppm (207 ppm as H2O2), hour 24): <10 CFU/ml
- CFU/ml LAB at hour indicated ([1]; molasses at pH 5.4, 197 ppm (69 ppm as H2O2), hour 2): 8.90 × 10^5 CFU/ml
- CFU/ml LAB at hour indicated ([1]; molasses at pH 5.4, 197 ppm (69 ppm as H2O2), hour 24): 4.00 × 10^4 CFU/ml
- CFU/ml LAB at hour indicated ([1]; molasses at pH 5.4, 393 ppm (138 ppm as H2O2), hour 2): 5.00 × 10^2 CFU/ml
- CFU/ml LAB at hour indicated ([1]; molasses at pH 5.4, 393 ppm (138 ppm as H2O2), hour 24): below the detection limit
- CFU/ml LAB at hour indicated ([1]; molasses at pH 5.4, 393 ppm (138 ppm as H2O2), hour 24, listed as Calcium percarbonate): <10 CFU/ml
- CFU/ml LAB at hour indicated ([1]; molasses at pH 5.4, 590 ppm (207 ppm as H2O2), hour 2): 8.0×10^4 CFU/ml
- CFU/ml LAB at hour indicated ([1]; molasses at pH 5.4, 590 ppm (207 ppm as H2O2), hour 2, listed as Calcium percarbonate): 8.00 × 10^4 CFU/ml
- CFU/ml LAB at hour indicated ([1]; molasses at pH 5.4, 590 ppm (207 ppm as H2O2), hour 24): <10 CFU/ml
- reductions in LAB ([1]; molasses pH 4.2, 197 ppm calcium peroxide, 2 hour): only slight reductions
- reduction of LAB ([1]; molasses pH 4.2, 197 ppm calcium peroxide, 24 hours): approximately 1 log
- reductions in LAB ([1]; molasses pH 4.2, 393 ppm calcium peroxide, 2 hour): only slight reductions
- reduction of the population of LAB ([1]; molasses pH 4.2, 393 ppm calcium peroxide, 24 hours): more than 6 log units
- reduction of the population of LAB ([1]; molasses pH 4.2, 590 ppm calcium peroxide, 2 hour): approximately 1 log
- reduction of the population of LAB ([1]; molasses pH 4.2, 590 ppm calcium peroxide, 24 hours): more than 6 log units
- % Remaining H2O2 Day 0 [2]: 100%
- % Remaining H2O2 Day 6 [2]: 97%
- % Remaining H2O2 Day 14 [2]: 97%
- % H2O2 Day 0 [2, 4]: 34.71% and 34.73%
- % H2O2 Day 6 [2, 5]: 33.66% and 33.60%
- % H2O2 Day 14 [2, 6]: 33.62% and 33.57%
- relative hydrogen peroxide retained during storage ([2]; storage at 40° C., day not given): 97%

Structure (SMILES): [Mg+2].[O-][O-] [Magnesium peroxide, magnesium peroxide]
- % Remaining H2O2 Day 0 [2]: 100%
- % Remaining H2O2 Day 6 [2]: 100%
- % H2O2 Day 0 [2, 4]: 10.66% and 10.72%
- % H2O2 Day 6 [2, 5]: 10.66% and 10.68%
- % H2O2 Day 14 [2, 6]: 10.64% and 10.65%

Structure (SMILES): O=C([O-])[O-].O=C([O-])[O-].OO.OO.OO.[Na+].[Na+].[Na+].[Na+] [Sodium percarbonate (FB 400), sodium percarbonate]
- % Remaining H2O2 Day 0 [2]: 100%
- % Remaining H2O2 Day 6 [2]: 96%
- % Remaining H2O2 Day 14 [2]: 96%
- % H2O2 Day 0 [2, 4]: 23.81% and 23.66%
- % H2O2 Day 6 [2, 5]: 22.80% and 22.74%
- % H2O2 Day 14 [2, 6]: 22.80% and 22.67%

Structure (SMILES): O=C([O-])[O-].O=C([O-])[O-].OO.OO.OO.[Na+].[Na+].[Na+].[Na+] [Sodium percarbonate (FB 400C), sodium percarbonate]
- % Remaining H2O2 Day 0 [2]: 100%
- % Remaining H2O2 Day 14 [2]: 96%
- % H2O2 Day 0 [2, 4]: 26.34% and 26.25%
- % H2O2 Day 6 [2, 5]: 25.37% and 25.45%
- % H2O2 Day 14 [2, 6]: 25.35% and 25.27%

Structure (SMILES): NC(N)=O.OO [Urea hydrogen peroxide, urea hydrogen peroxide, reference compound]
- % H2O2 Day 0 [2, 4]: 34.53% and 34.56%
- % Remaining H2O2 Day 0 [2, 4]: 100%
- % H2O2 Day 0 ([2]; before storage, duplicate samples, listed as urea hydrogen peroxide): approximately 35%
- % H2O2 Day 6 [2, 5]: 0.24% and 0.25%
- % Remaining H2O2 Day 6 [2, 5]: <1%
- % H2O2 Day 6 ([2]; storage at 40° C. in dry oven, day 6, duplicate samples, listed as urea hydrogen peroxide): below 1%
- % H2O2 Day 14 [2, 6]: 0.08%
- % Remaining H2O2 Day 14 [2, 6]: 0%
- stability during storage (in words) ([2]; storage at 40° C., 6 and 14 days): not stable during storage
- reduction of the population of LAB ([3]; 500 ppm as H2O2, 2 hours of incubation at 32° C., in presence of yeast): 3 log units
- Log CFU/mL of LAB at hour indicated ([3]; 500 ppm as H2O2, hour 2, molasses pH 5.0, yeast approx. 6.80 Log CFU/ml, 32° C.): 3.36 Log CFU/mL
